Experimental data: US8367349B2, “Methods for identifying modulators of LRRK2” (Medical Research Council, priority 2010, dated 2013)

Key:
GFP-LRRK2 = molecular target: T1, GFP-LRRK2 (Homo sapiens, UniProt Q5S007); assay: Kinase inhibitor panel: Ser910/Ser935 phosphorylation in HEK293 cells stably expressing GFP-LRRK2; type: cell-based; conditions: HEK293 GFP-LRRK2, 90 minutes, inhibitors at the higher limits of concentrations routinely employed
T1 construct: immunoprecipitates of stably expressed full length GFP-LRRK2; expressed in transfected cells
T1 sequence (Q5S007 whole entry): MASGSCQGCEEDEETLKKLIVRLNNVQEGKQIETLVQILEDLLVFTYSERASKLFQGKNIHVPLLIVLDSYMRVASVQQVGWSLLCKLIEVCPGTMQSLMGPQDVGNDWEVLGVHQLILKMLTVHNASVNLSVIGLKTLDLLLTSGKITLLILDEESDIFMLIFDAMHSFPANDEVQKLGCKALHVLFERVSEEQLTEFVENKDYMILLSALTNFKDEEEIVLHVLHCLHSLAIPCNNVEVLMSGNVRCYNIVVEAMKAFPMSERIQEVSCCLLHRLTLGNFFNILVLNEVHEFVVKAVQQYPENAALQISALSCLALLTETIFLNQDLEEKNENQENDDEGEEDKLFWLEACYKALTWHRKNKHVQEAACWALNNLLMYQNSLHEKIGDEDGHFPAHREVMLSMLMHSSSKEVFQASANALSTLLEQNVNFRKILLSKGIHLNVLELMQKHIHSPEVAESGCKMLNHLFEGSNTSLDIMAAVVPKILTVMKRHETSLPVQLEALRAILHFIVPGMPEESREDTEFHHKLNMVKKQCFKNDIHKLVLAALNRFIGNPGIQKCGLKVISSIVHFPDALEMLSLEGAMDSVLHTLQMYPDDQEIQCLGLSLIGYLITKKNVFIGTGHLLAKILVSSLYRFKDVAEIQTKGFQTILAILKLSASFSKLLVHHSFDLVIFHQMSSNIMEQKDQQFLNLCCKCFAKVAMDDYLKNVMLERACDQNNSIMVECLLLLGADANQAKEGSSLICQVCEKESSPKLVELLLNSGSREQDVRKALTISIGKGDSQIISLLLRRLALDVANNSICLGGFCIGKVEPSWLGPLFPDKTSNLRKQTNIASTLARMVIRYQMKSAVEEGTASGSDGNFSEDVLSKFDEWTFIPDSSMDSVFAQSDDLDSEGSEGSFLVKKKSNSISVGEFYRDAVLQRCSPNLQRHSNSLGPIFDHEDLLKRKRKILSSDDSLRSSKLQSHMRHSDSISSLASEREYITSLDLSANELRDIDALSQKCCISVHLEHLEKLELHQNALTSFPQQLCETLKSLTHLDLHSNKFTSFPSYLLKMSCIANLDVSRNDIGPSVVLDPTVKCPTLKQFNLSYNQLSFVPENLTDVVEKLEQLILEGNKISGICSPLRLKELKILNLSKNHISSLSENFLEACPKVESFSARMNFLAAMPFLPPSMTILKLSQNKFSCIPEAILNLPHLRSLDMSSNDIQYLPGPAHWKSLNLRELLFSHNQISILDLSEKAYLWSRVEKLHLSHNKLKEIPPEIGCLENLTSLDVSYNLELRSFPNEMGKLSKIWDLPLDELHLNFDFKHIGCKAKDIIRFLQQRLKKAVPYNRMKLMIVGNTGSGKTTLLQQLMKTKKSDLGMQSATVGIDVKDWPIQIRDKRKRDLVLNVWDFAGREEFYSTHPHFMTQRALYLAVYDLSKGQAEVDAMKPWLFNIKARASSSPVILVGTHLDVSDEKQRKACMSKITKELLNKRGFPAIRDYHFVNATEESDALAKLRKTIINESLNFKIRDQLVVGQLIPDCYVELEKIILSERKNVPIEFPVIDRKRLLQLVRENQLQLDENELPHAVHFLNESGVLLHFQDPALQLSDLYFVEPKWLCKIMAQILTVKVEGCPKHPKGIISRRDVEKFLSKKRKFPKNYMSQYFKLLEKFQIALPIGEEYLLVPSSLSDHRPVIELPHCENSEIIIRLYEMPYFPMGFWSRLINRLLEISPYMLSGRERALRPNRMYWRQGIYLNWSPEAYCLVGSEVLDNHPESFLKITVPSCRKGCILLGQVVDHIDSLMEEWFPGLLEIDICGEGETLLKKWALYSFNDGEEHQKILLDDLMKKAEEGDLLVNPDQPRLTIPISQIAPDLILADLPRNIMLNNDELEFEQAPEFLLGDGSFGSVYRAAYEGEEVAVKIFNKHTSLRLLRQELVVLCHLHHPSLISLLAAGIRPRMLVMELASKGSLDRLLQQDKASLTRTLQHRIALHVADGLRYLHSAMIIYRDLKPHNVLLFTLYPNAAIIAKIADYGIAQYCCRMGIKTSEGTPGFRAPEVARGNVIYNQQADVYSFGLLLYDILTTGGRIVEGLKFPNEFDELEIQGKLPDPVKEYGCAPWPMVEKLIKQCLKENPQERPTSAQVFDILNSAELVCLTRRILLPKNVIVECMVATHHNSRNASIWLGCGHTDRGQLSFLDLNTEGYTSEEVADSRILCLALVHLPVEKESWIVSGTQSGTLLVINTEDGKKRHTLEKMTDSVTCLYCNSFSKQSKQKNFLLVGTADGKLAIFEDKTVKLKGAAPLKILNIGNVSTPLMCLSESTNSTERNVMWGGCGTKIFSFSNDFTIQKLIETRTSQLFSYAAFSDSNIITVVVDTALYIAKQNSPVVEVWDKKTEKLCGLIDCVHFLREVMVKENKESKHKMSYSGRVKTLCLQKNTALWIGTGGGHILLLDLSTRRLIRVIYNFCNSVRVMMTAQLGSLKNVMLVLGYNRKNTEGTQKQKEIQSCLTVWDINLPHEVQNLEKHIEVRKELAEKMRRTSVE
Description: FIG. 16. HEK-293 stably expressing GFP-LRRK2 were treated with DMSO, or the following inhibitors dissolved in DMSO, at the indicated concentration for 90 minutes. […] Total LRRK2 was assessed by GFP immunoblot. The immunoblots shown are representative of 2 independent experiments. Cell transfections were performed by the polyethylenimine method. Where inhibitors are utilized, they were dissolved in DMSO and used at the indicated concentrations with an equivalent volume of DMSO used as a control. The final concentration of DMSO in the culture medium was never more than 0.1% (v/v). Inhibitors were added to the culture medium for the indicated times before lysis. Per 15 cm dish, HEK 293 cells were lysed with 1.0 ml and 3T3 cells were lysed with 0.6 ml of lysis buffer supplemented with the indicated detergent and clarified by centrifugation at 16,000×g at 4° C. for 10 minutes. After induction and inhibitor treatment, T-REx-GFP expressing cells were lysed at room temperature with SDS lysis buffer after washing with PBS. […] Protein concentrations were determined using the Bradford method with BSA as the standard. […] Immune complexes were washed twice with lysis buffer supplemented with 0.3 M NaCl and twice with Buffer A. Precipitates were either used as a source of kinase or immediately analyzed by immunoblot. […] DIG 14-3-3 was detected with HRP labelled anti-DIG Fab fragments (Roche).

endogenous LRRK2 [1] = molecular target: T2, endogenous LRRK2 (Mus musculus, UniProt Q5S006); assay: Ser910/Ser935 phosphorylation and 14-3-3 binding of endogenous LRRK2 in Swiss 3T3 cells; type: cell-based; conditions: 90 minutes
T2 construct: endogenous in cells; host or cells: Swiss 3T3 cells
T2 sequence (Q5S006 whole entry): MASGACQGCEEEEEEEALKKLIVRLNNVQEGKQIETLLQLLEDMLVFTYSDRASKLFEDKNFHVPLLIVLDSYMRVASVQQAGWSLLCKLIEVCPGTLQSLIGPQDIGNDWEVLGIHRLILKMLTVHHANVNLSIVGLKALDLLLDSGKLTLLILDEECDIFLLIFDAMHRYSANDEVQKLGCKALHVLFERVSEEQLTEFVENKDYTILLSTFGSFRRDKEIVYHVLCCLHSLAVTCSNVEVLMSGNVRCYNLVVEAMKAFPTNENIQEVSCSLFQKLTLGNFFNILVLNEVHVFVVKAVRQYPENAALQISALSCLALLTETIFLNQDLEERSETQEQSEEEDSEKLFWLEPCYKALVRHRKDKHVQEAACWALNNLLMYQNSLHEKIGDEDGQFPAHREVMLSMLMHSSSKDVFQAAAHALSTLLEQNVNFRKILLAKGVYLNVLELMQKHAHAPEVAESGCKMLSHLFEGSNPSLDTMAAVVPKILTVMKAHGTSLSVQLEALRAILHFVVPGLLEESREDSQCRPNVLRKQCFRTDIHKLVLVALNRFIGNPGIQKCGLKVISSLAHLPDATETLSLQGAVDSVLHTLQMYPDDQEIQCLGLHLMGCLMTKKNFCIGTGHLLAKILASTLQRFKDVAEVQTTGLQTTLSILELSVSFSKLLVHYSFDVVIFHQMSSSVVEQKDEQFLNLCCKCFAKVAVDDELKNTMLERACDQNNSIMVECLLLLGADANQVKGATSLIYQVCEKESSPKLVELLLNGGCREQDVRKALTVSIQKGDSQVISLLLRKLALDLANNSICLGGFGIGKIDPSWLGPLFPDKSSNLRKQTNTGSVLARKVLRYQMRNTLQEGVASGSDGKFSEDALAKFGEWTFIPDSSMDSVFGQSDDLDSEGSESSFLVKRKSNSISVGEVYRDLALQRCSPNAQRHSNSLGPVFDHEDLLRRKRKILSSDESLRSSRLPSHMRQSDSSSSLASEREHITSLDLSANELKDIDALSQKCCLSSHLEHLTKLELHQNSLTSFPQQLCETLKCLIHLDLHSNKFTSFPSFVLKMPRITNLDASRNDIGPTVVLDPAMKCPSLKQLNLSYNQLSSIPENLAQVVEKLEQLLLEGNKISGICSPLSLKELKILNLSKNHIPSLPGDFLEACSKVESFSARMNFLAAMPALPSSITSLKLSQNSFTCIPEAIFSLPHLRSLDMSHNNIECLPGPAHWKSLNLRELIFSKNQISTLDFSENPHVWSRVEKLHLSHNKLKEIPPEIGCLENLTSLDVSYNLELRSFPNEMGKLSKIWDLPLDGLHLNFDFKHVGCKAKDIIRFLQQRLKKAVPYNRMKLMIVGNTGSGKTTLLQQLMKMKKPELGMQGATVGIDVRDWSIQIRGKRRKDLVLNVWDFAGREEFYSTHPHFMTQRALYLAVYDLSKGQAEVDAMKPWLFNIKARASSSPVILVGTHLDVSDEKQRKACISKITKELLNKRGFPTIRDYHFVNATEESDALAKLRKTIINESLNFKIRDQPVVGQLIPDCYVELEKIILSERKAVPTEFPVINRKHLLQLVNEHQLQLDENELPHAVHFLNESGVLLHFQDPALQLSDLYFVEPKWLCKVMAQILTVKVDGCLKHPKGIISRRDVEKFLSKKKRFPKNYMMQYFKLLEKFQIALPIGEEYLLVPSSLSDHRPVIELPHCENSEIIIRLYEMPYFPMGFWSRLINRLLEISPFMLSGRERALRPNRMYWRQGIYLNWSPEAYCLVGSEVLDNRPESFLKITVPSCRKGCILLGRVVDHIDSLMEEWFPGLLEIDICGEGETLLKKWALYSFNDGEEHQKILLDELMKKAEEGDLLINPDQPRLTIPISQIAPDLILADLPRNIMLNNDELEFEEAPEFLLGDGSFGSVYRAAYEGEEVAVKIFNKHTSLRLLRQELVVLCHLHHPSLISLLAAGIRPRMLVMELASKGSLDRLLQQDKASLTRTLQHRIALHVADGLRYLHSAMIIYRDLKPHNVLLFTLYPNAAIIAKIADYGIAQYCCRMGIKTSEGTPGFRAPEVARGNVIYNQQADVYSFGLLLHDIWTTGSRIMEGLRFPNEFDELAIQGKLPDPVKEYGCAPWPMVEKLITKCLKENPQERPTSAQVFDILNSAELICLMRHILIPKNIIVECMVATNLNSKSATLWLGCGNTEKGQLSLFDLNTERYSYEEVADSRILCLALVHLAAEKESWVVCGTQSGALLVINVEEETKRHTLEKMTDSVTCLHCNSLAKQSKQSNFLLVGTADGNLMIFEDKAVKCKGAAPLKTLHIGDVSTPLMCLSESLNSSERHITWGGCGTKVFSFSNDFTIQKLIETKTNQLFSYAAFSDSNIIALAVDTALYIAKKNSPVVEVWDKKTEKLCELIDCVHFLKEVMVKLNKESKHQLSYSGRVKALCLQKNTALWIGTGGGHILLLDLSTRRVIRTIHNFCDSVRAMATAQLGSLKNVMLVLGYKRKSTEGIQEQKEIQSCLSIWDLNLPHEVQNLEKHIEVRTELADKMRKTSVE
Description: (§1) Cell transfections were performed by the polyethylenimine method. Where inhibitors are utilized, they were dissolved in DMSO and used at the indicated concentrations with an equivalent volume of DMSO used as a control. The final concentration of DMSO in the culture medium was never more than 0.1% (v/v). Inhibitors were added to the culture medium for the indicated times before lysis. Per 15 cm dish, HEK 293 cells were lysed with 1.0 ml and 3T3 cells were lysed with 0.6 ml of lysis buffer supplemented with the indicated detergent and clarified by centrifugation at 16,000×g at 4° C. for 10 minutes. After induction and inhibitor treatment, T-REx-GFP expressing cells were lysed at room temperature with SDS lysis buffer after washing with PBS. SDS lysates were boiled and sonicated to reduce viscosity. When not used immediately, all lysate supernatants were snap frozen in liquid nitrogen and stored at −80° C. until use. Protein concentrations were determined using the Bradford method with BSA as the standard.
Immunological procedures. Cell lysates (10-30 μg) were resolved by electrophoresis on SDS polyacrylamide gels or Novex 4-12% gradient gels, and electroblotted to nitrocellulose membranes. Membranes were blocked with 5% skimmed milk (w/v) in 50 mM Tris/HCl, pH 7.5, 0.15 M NaCl and 0.1% (v/v) Tween (TBST Buffer). […]

LRRK2[G2019S] = molecular target: T3, LRRK2[G2019S] (Homo sapiens, UniProt Q5S007, G2019S); assay: Ser910/Ser935 phosphorylation and 14-3-3 binding of Flag-LRRK2[G2019S] in HEK-293 cells; type: cell-based
T3 construct: expressed in transfected cells; host or cells: HEK-293 cells, transient transfection
T3 sequence (Q5S007 whole entry G2019S): as the sequence (Q5S007 whole entry) above, with G2019S counted along it
Description: (§2) FIG. 5. […] Cells were lysed in lysis buffer supplemented with 0.5% NP40 and […] and subjected to anti-FLAG immunoprecipitation. Immunoprecipitates were resolved on 4-12% Novex SDS-polyacrylamide gels and subjected to immunoblot with FLAG (total LRRK2), anti-pS910, anti-pS935 as well as a 14-3-3 overlay assay.
as §1
(§3) Immunological procedures. […]

LRRK2[A2016T+G2019S] = molecular target: T4, LRRK2[A2016T+G2019S] (Homo sapiens, UniProt Q5S007, A2016T/G2019S); assay: Ser910/Ser935 phosphorylation and 14-3-3 binding of drug resistant LRRK2[A2016T+G2019S] in HEK-293 cells; type: cell-based; conditions: HEK-293 over-expressing LRRK2[A2016T+G2019S], 90 minutes
T4 construct: expressed in transfected cells; host or cells: HEK-293 cells, transient transfection
T4 sequence (Q5S007 whole entry A2016T/G2019S): as the sequence (Q5S007 whole entry) above, with A2016T, G2019S counted along it
Description: as §2, §1, §3

wild type FLAG-LRRK2 = molecular target: T5, wild type FLAG-LRRK2 (Homo sapiens, UniProt Q5S007); assay: Ser910/Ser935 dephosphorylation of wild type FLAG-LRRK2 in 293 cells; type: cell-based
T5 construct: overexpressed full length human FLAG-LRRK2 expressed in HEK-293 cells; expressed in transfected cells; host or cells: HEK-293 cells, transient transfection
Description: as §2, §1, §3

[2] = tested on: GFP-LRRK2 or GFP-LRRK2[G2019S]; assay: Cytoplasmic localisation of GFP-LRRK2 or GFP-LRRK2[G2019S] in T-REx cells (fluorescence microscopy); type: cell-based, human; conditions: drug sensitive GFP-LRRK2 or GFP-LRRK2[G2019S], 90 min before fixation
Description: (§4) FIG. 14. Disruption of 14-3-3 binding induces accumulation of LRRK2 within cytoplasmic aggregates. A.) Stable-inducible T-REx cells lines harboring the indicated forms of LRRK2 were induced for 24 hours with 0.1 μg/ml doxycycline to induce expression of GFP-LRRK2. The indicated cell lines were treated in the absence or presence of the indicated dose of H-1152 for 90 min prior to fixation. Representative fluorescent micrographs of GFP-LRRK2 localisation are shown. Cytoplasmic aggregates of GFP-LRRK2 are indicated with white arrowheads. B.) Fluorescent micrographs representative of cultures of the indicated forms GFP-LRRK2 are shown. Cytoplasmic aggregates of GFP-LRRK2 are indicated with white arrowheads. Localisation analyses were performed in duplicate, and similar results observed in two independent experiments.
(§5) Fluorescence Microscopy. HEK-293 Flp-in T-REx were purchased from Invitrogen and stable cells harbouring GFP tagged wild type and mutant forms of LRRK2 were generated using standard protocols. Cells were plated in 4-well glass bottom, CC2 coated chamber slides (Nunc). One day after plating, cells were induced with 0.1 μg/ml doxycycline and 24 hr later, cells were fixed in 4% paraformaldehyde buffered in phosphate buffered saline (purchased from USB, # 19943). […]

[3] = tested on: LRRK2[A2016T] or LRRK2[A2016T+G2019S]; assay: Cytoplasmic localisation of drug resistant GFP-LRRK2[A2016T] or [A2016T+G2019S] in T-REx cells; type: cell-based, human
Description: as §4, §5

endogenous LRRK2 [4] = molecular target: T2, endogenous LRRK2; assay: Kinase activity of endogenous LRRK2 immunoprecipitated from inhibitor-treated Swiss 3T3 cells after wash-out; type: biochemical; conditions: 30 μM H1152 or 10 μM sunitinib for 2 h, inhibitor washed off, 20 μM Nictide
Description: Immunoprecipitates were washed with lysis buffer containing 0.5 M NaCl to remove inhibitor and were then incubated in kinase buffer containing 20 μM Nictide with the presence or absence of magnesium-ATP for 30 min. Following incubation, immunoprecipitates were centrifuged at 8000 rpm for 0.5 min and the supernatant spotted on to P81 paper for measurement of LRRK2 kinase activity. Sample buffer was added to the pelleted beads and LRRK2 S910 and S935 phosphorylation was quantified following immunoblot analysis. A membrane was also subjected to autoradiography to assess LRRK2 autophosphorylation.
LRRK2 Immunoprecipitation Kinase assays. Peptide Kinase Assays were set up in a total volume of 50 μl with immunoprecipitated LRRK2 as a source of kinase, in 50 mM Tris pH 7.5, 0.1 mM EGTA, 10 mM MgCl2 and 0.1 mM [γ-^32P]ATP (˜500-1000 cpm/pmol) in the presence of 30 μM Nictide peptide substrate. Reactions were terminated by applying 30 μl of the reaction mixture on to P81 phosphocellulose paper and immersion in 50 mM phosphoric acid. After extensive washing, reaction products were quantitated by Cerenkov counting. One half of the remaining reaction was subjected to immunoblot analysis using the Odyssey LICOR system and specific activity is represented as cpm/LICOR independent density values.

LRRK2 = LRRK2 (Homo sapiens, UniProt Q5S007); conditions: wild type LRRK2, in vitro; read-out: IC50 for inhibition of LRRK2; cited from earlier work
LRRK2[Ala2016Thr] = LRRK2[Ala2016Thr] (Homo sapiens, UniProt Q5S007, A2016T); conditions: relative to normally sensitive LRRK2; cited from earlier work
LRRK2[Ala2016Thr], sequence (Q5S007 whole entry A2016T): as the sequence (Q5S007 whole entry) above, with A2016T counted along it

SMILES | dephosphorylation of Ser910/Ser935 (GFP-LRRK2) | concentration inducing almost complete dephosphorylation of Ser910 and Ser935 and loss of 14-3-3 binding (endogenous LRRK2 [1]) | dephosphorylation of endogenous LRRK2 at Ser910 and Ser935 with concomitant reduction in 14-3-3 binding (endogenous LRRK2 [1]; increasing amounts of inhibitor) | potency in inducing dephosphorylation and impairing 14-3-3 binding: LRRK2[G2019S] compared with wild type LRRK2 (LRRK2[G2019S]; HEK-293 cells, Flag-LRRK2 forms) | dephosphorylation of LRRK2[G2019S] at Ser910 and Ser935 and disruption of 14-3-3 binding (LRRK2[G2019S]; HEK-293 over-expressing LRRK2[G2019S], 90 minutes) | inhibition of Ser910 or Ser935 phosphorylation or 14-3-3 binding of drug resistant mutant (LRRK2[A2016T+G2019S]) | potency at inducing dephosphorylation of wild type FLAG-LRRK2 compared with endogenous LRRK2 in Swiss 3T3 cells (wild type FLAG-LRRK2) | accumulation of LRRK2 within cytoplasmic pools [2] | accumulation of LRRK2 within cytoplasmic pools [3] | endogenous LRRK2 kinase activity after treatment of cells (endogenous LRRK2 [4]) | IC50 (LRRK2) | fold less sensitive: drug resistant LRRK2[Ala2016Thr] mutant (LRRK2[Ala2016Thr])
N#CC(c1ccnc(NCCc2cccnc2)n1)c1nc2ccccc2s1 (stereo not drawn) [AS601245] | did not induce dephosphorylation |  |  |  |  |  |  |  |  |  |  | 
Cc1cncc2cccc(S(=O)(=O)N3CCCNC[C@@H]3C)c12 [H-1152] |  | 10 to 30 µM | dose dependent dephosphorylation | more potent | dose-dependent dephosphorylation | neither H-1152 nor sunitinib significantly inhibited | similar | marked accumulation of LRRK2 within cytoplasmic pools | no cytoplasmic pool accumulation | did not affect | 150 nM | 32 fold
